The test system of one assay is mustard, black. Description: Test E preemergence. It counts as in vivo, Brassica nigra. Conditions: 21 days, scale 0 to 100. From the text: (§1) Seeds of plant species selected from bermudagrass (Cynodon dactylon), Surinam grass (Brachiaria decumbens), crabgrass, large (large crabgrass, Digitaria sanguinalis), crabgrass, naked (naked crabgrass, Digitaria nuda), foxtail, green (green foxtail, Setaria viridis), johnsongrass (Sorghum halepense), kochia (Kochia scoparia), morningglory (pitted morningglory, Ipomoea lacunosa), nutsedge, purple (purple nutsedge, Cyperus rotundus), ragweed (common ragweed, Ambrosia elation), mustard, black (black mustard, Brassica nigra), guineagrass (Panicum maximum), dallisgrass (Paspalum dilatatum), barnyardgrass (Echinochloa crus-galli), sandbur (southern sandbur, Cenchrus echinatus), sowthistle (common sowthistle, Sonchus oleraceous), ryegrass, Italian (Italian ryegrass, Lolium multiflorum), signalgrass (broadleaf signalgrass, Brachiaria platyphylla), dayflower, VA (Virginia (VA) dayflower, Commelina virginica), bluegrass (annual bluegrass, Poa annua), quackgrass (Elytrigia repens), mallow (common mallow, Malva sylvestris), buckwheat, wild (wild buckwheat, Polygonum convolvulus), leafy spurge (Euphorbia esula), common chickweed (Stellaria media), wild poinsettia (Euphorbia heterophylla), pigweed, palmer (palmer pigweed, Amaranthus palmeri), and pigweed (redroot pigweed, Amaranthus retroflexus) were planted into a blend of loam soil and sand and treated preemergence with test chemicals formulated in a non-phytotoxic solvent mixture which included a surfactant.
(§2) Treated plants and controls were maintained in a greenhouse for 21 days, after which time all species were compared to controls and visually evaluated. Plant response ratings, summarized in Table E, are based on a scale of 0 to 100 where 0 is no effect and 100 is complete control. A dash (-) response means no test result.

Another assay concerns dayflower, VA. Description: Test F postemergence. As to conditions: scale 0 to 100. Type of assay: in vivo, Commelina virginica. The text has this:
(§3) Seeds of plant species selected from corn (Zea mays), soybean (Glycine max), velvetleaf (Abutilon theophrasti), lambsquarters (Chenopodium album), wild poinsettia (Euphorbia heterophylla), pigweed, palmer (palmer pigweed, Amaranthus palmeri), common waterhemp (Amaranthus rudis), surinam grass (Brachiaria decumbens), large crabgrass (Digitaria sanguinalis), crabgrass, Brazil (Brazilian crabgrass, Digitaria horizontalis), fall panicum (Panicum dichotomiflorum), giant foxtail (Setaria faberii), green foxtail (Setaria viridis), goosegrass (Eleusine indica), johnsongrass (Sorghum halepense), common ragweed (Ambrosia elation), barnyardgrass (Echinochloa crus-galli), southern sandbur (Cenchrus echinatus), arrowleaf sida (Sida rhombifolia), Italian ryegrass (Lolium multiflorum), dayflower, VA (Virginia (VA) dayflower, Commelina virginica), field bindweed (Convolvulus arvensis), cocklebur (common cocklebur, Xanthium strumarium), morningglory (Ipomoea coccinea), nightshade (eastern black nightshade, Solanum ptycanthum), kochia (Kochia scoparia), yellow nutsedge (Cyperus esculentus), and hairy beggarticks (Bidens pilosa), were planted into a silt loam soil and treated preemergence with test chemicals formulated in a non-phytotoxic solvent mixture which included a surfactant.
(§4) At the same time, plants from these crop and weed species and also horseweed (Canada horseweed, Conyza canadensis), smartweed (ladysthumb smartweed, Polygonum persicaria), waterhemp_RES1, (ALS & Triazine resistant common waterhemp, Amaranthus rudis), and waterhemp_RES2, (ALS & HPPD resistant common waterhemp, Amaranthus rudis) were treated with postemergence applications of test chemicals formulated in the same manner. Plants ranged in height from 2 to 18 cm for postemergence treatments (1- to 4-leaf stage). Treated plants and controls were maintained in a greenhouse for 14 to 21 days, after which time all species were compared to controls and visually evaluated. Plant response ratings, summarized in Table F, are based on a scale of 0 to 100 where 0 is no effect and 100 is complete control. A dash (-) response means no test result.

The subject of a further assay is corn. Put plainly: Test F postemergence. Conditions: scale 0 to 100. Type of assay: in vivo, Zea mays.
From the text: as §3, §4

The next assay relates to leafy spurge. Put plainly: Test E preemergence. Conditions: 21 days, scale 0 to 100. Type of assay: in vivo, Euphorbia esula.
From the text: as §1, §2

Assay [1] relates to waterhemp_RES2 (ALS & HPPD resistant common waterhemp). Put plainly: Test F postemergence. Type of assay: in vivo, Amaranthus rudis. Conditions: scale 0 to 100.
From the text: as §3, §4

In assay [2] the test system is waterhemp_RES1 (ALS & Triazine resistant common waterhemp). Put plainly: Test F postemergence. It counts as in vivo, Amaranthus rudis. Conditions: scale 0 to 100.
From the text: as §3, §4

The subject of a further assay is common waterhemp. Put plainly: Test F postemergence. It counts as in vivo, Amaranthus rudis. As to conditions: scale 0 to 100.
From the text: as §3, §4

Another assay concerns crabgrass, Brazil. Description: Test F postemergence. It counts as in vivo, Digitaria horizontalis. Conditions: scale 0 to 100.
From the text: as §3, §4

The subject of another assay is common ragweed. Put plainly: Test A preemergence. Type of assay: in vivo, Ambrosia elation. In outline: (§5)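 Seeds were sown in a loam soil–sand blend and given a directed soil spray preemergence; postemergence plants at 2–10 cm, one- to two-leaf stage, were sprayed with compound in non-phytotoxic solvent with surfactant. After about 10 days in a greenhouse, injury was visually rated against untreated controls (0 = no effect, 100 = complete control).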

The subject of a further assay is kochia. Description: Test A postemergence. It counts as in vivo, Kochia scoparia. In outline:
as §5

[3] abbreviates: 125 g ai/ha, visual injury, 0 to 100 scale, approx. 10 days.
Setting [4] is: 500 g ai/ha, visual injury after approx. 10 days, 0 to 100 scale (0 no effect, 100 complete control).
The mark [5] stands for this setting: Postemergence, 500 g ai/ha, 0 to 100 scale (0 no effect, 100 complete control).
[6] abbreviates: postemergence, 125 g ai/ha, about 10 days, visual rating on 0 to 100 scale (0 no effect, 100 complete control).

For `CCc1cc(C(=O)NCC(F)(F)F)nn1Cc1ccnc(C(F)(F)F)c1` [Compound 78, 5-ethyl-N-(2,2,2-trifluoroethyl)-1-[[(2-trifluoromethyl)-4-pyridinyl]methyl]-1H-pyrazole-3-carboxamide], the “Plant response rating, Mustard, Black” value was determined as 70 in the assay with mustard, black (16 g ai/ha); 100 in the assay with mustard, black (31 g ai/ha); 100 with mustard, black (62 g ai/ha); 100 in the assay on mustard, black (125 g ai/ha); 100 in the assay on mustard, black (250 g ai/ha). The “Plant response rating, Dayflower, VA” value in the assay with dayflower, VA (Postemergence, 31 g ai/ha) is 20; in the assay with dayflower, VA (Postemergence, 125 g ai/ha), 60; in the assay with dayflower, VA (Postemergence, 250 g ai/ha), 90; in the assay with dayflower, VA (postemergence, 62 g ai/ha), 50; in the assay on dayflower, VA (postemergence, 500 g ai/ha), 98. The “Plant response rating, Corn” value with corn (Postemergence, 31 g ai/ha) came out at 15; with corn (Postemergence, 125 g ai/ha), 50; with corn (Postemergence, 250 g ai/ha), 85; in the assay with corn (postemergence, 62 g ai/ha), 20. The “Plant response rating, Leafy Spurge” value in the assay on leafy spurge (16 g ai/ha) is 80; in the assay with leafy spurge (31 g ai/ha) it was 100; in the assay on leafy spurge (62 g ai/ha) it was 100; in the assay on leafy spurge (125 g ai/ha) it was 100; in the assay with leafy spurge (250 g ai/ha), 100. Also, the “Plant response rating, Waterhemp_RES2” value in [1] (Postemergence, 31 g ai/ha) came out at 60; in assay [1] (Postemergence, 125 g ai/ha), 70; in [1] (Postemergence, 250 g ai/ha) it was 75; in assay [1] (postemergence, 62 g ai/ha) it was 65; in assay [1] (postemergence, 500 g ai/ha) it was 95. In addition, the “Plant response rating, Waterhemp_RES1” value in assay [2] (Postemergence, 31 g ai/ha) was found to be 60; in assay [2] (Postemergence, 125 g ai/ha), 60; in assay [2] (Postemergence, 250 g ai/ha) it was 65; in assay [2] (postemergence, 62 g ai/ha) it was 70; in assay [2] (postemergence, 500 g ai/ha), 100. In addition, the “Plant response rating, Common Waterhemp” value in the assay with common waterhemp (Postemergence, 31 g ai/ha) was 70; in the assay with common waterhemp (Postemergence, 125 g ai/ha), 75; in the assay on common waterhemp (Postemergence, 250 g ai/ha), 70; in the assay on common waterhemp (postemergence, 62 g ai/ha), 60; in the assay on common waterhemp (postemergence, 500 g ai/ha) it was 98. For the same compound, the “Plant response rating, Crabgrass, Brazil” value came out at 40 with crabgrass, Brazil (Postemergence, 31 g ai/ha); 70 in the assay with crabgrass, Brazil (Postemergence, 125 g ai/ha); 90 with crabgrass, Brazil (Postemergence, 250 g ai/ha); 40 in the assay with crabgrass, Brazil (postemergence, 62 g ai/ha); 95 in the assay with crabgrass, Brazil (postemergence, 500 g ai/ha).

Turning to `CCc1cc(C(=O)NC(C)C)nn1Cc1ccnc(C(F)(F)F)c1` [Compound 103], the “Plant response rating, Mustard, Black” value in the assay with mustard, black (16 g ai/ha) was found to be 100; in the assay with mustard, black (31 g ai/ha), 100; in the assay on mustard, black (62 g ai/ha), 100; with mustard, black (125 g ai/ha), 100; in the assay with mustard, black (250 g ai/ha) it was 100. The “Plant response rating, Leafy Spurge” value in the assay on leafy spurge (16 g ai/ha) amounted to 75; in the assay with leafy spurge (31 g ai/ha), 95; in the assay on leafy spurge (62 g ai/ha), 100; with leafy spurge (125 g ai/ha) it was 100; in the assay on leafy spurge (250 g ai/ha), 100.

For `CCONC(=O)c1cc(CC)n(Cc2cc(C(F)(F)F)no2)n1` [Compound 125], the “Common Ragweed plant response rating” value in the assay on common ragweed (setting [3]) was 50; with common ragweed (setting [4]), 90. For the same compound, the “Kochia plant response rating” value was 90 with kochia (setting [5]) and 60 in the assay with kochia (setting [6]).

For the compound `CCOc1cc(C(=O)NC2CC2)nn1Cc1ccnc(OC(F)F)c1` [Compound 133], the “Common Ragweed plant response rating” value in the assay with common ragweed (setting [3]) came out at 80; with common ragweed (setting [4]), 90. For the same compound, the “Kochia plant response rating” value came out at 100 in the assay on kochia (setting [5]) and 90 in the assay on kochia (setting [6]).

Turning to `CCOc1cc(C(=O)NC(C)C)nn1Cc1ccnc(C(F)(F)F)c1` [Compound 188], the “Plant response rating, Dayflower, VA” value was 40 in the assay on dayflower, VA (Postemergence, 31 g ai/ha); 70 with dayflower, VA (Postemergence, 125 g ai/ha); 90 in the assay with dayflower, VA (Postemergence, 250 g ai/ha); 50 in the assay with dayflower, VA (postemergence, 62 g ai/ha); 90 with dayflower, VA (postemergence, 500 g ai/ha). The “Plant response rating, Corn” value in the assay with corn (Postemergence, 31 g ai/ha) came to 10; in the assay on corn (Postemergence, 125 g ai/ha), 60; with corn (Postemergence, 250 g ai/ha), 95; in the assay on corn (postemergence, 62 g ai/ha), 20. Moreover, the “Plant response rating, Waterhemp_RES2” value in assay [1] (Postemergence, 31 g ai/ha) turned out to be 65; in assay [1] (Postemergence, 125 g ai/ha), 50; in assay [1] (Postemergence, 250 g ai/ha), 50; in assay [1] (postemergence, 62 g ai/ha), 70; in [1] (postemergence, 500 g ai/ha), 60. The “Plant response rating, Waterhemp_RES1” value in assay [2] (Postemergence, 31 g ai/ha) stood at 60; in [2] (Postemergence, 125 g ai/ha), 50; in [2] (Postemergence, 250 g ai/ha) it was 80; in assay [2] (postemergence, 62 g ai/ha) it was 70; in [2] (postemergence, 500 g ai/ha), 85. In addition, the “Plant response rating, Common Waterhemp” value in the assay on common waterhemp (Postemergence, 31 g ai/ha) is 60; in the assay on common waterhemp (Postemergence, 125 g ai/ha) it was 80; in the assay on common waterhemp (Postemergence, 250 g ai/ha), 80; in the assay with common waterhemp (postemergence, 62 g ai/ha), 70; with common waterhemp (postemergence, 500 g ai/ha), 90. For the same compound, the “Plant response rating, Crabgrass, Brazil” value is 20 in the assay with crabgrass, Brazil (Postemergence, 31 g ai/ha); 75 in the assay with crabgrass, Brazil (Postemergence, 125 g ai/ha); 90 with crabgrass, Brazil (Postemergence, 250 g ai/ha); 30 in the assay with crabgrass, Brazil (postemergence, 62 g ai/ha); 95 in the assay on crabgrass, Brazil (postemergence, 500 g ai/ha).

Take `CCOc1cc(C(=O)NC2CC2)nn1Cc1ccnc(C(F)(F)F)c1` [Compound 189]: the “Plant response rating, Mustard, Black” value in the assay on mustard, black (4 g ai/ha) came out at 95; with mustard, black (8 g ai/ha) it was 98; with mustard, black (16 g ai/ha), 100; with mustard, black (31 g ai/ha) it was 100; in the assay on mustard, black (62 g ai/ha), 100. In addition, the “Plant response rating, Leafy Spurge” value is on record as 35 with leafy spurge (4 g ai/ha); 75 in the assay with leafy spurge (8 g ai/ha); 100 in the assay on leafy spurge (16 g ai/ha); 100 in the assay on leafy spurge (31 g ai/ha); 100 in the assay on leafy spurge (62 g ai/ha).

Regarding `CCc1cc(C(=O)NCC(F)(F)F)nn1Cc1cc(OC(F)F)nn1C` [Compound 206], the “Common Ragweed plant response rating (0 to 100 scale)” value in the assay on common ragweed (125 g ai/ha, visual injury approx. 10 days after treatment) amounted to 0. Moreover, the “Common Ragweed plant response rating” value with common ragweed (setting [4]) is 40. The “Kochia plant response rating” value came to 80 in the assay with kochia (Postemergence, 125 g ai/ha, 0 to 100 scale, 0 no effect, 100 complete control) and 90 in the assay with kochia (setting [5]).

The values are drawn from patent US20150105252A1, “SUBSTITUTED PYRAZOLES AS HERBICIDES” (E I DU PONT DE NEMOURS AND COMPANY, priority 2013, published 2015).
